Assay results taken from patent publication US10174067B2, “Type of cytidine derivative and application thereof” (priority 2014, dated 2019).
Marks after values point to notes of the source that are not given here.

Columns and labels:
ICR mice = assay: in vivo; conditions: female ICR mice; single-dose ip
Method: This experiment was to investigate the toxic effects of single-dose intraperitoneal administration on ICR mice and determine the maximum tolerated dose (MTD) of each subject. Maximum tolerated dose (MTD) refers to the dose that may not cause an animal to die, may not cause the animal to suffer weight loss exceeding 10% (compared with Day 0), or may not produce significant side effects.
(§1) The corresponding amount of test substance was taken in a 5 mL glass tube and dissolved in ethanol with a 5 mm magnetic stirrer for stirring. After dissolving completely, Cremophor EL was added with continuous stirring. The marked amount of saline was added and mixed evenly before use. The volume ratio of ethanol, Cremophor EL, and physiological saline was 5:5:90.
Varieties and lines: ICR mice; level: SPF; sex: female.
Method of administration: ip. The dose was reduced in case of animal death, till an animal survived; the dose was increased in case of no animal death; the test was ended when the animals survived normally at the given high dose. Finally, the MTD of the mice on the test substances was determined according to the test results. The animals were observed continuously for 7 days after acute administration.
During the experiment, all animals were under detailed and continuous clinical observation for […], twice a day (10:00 am, 16:00 pm) after administration. The observation included but not limited to: skin, hair, ear, nose, mouth, chest, abdomen, external genitalia, limbs and feet, respiratory and circulatory system, autonomic effects (such as salivation), nervous system (such as tremor, convulsions, stress response and abnormal behavior).
The body of animals was weighed before administration, and then weighed and recorded at the same time each day.
The observation results, animal body weight, and animal survival after one week of administration were recorded in detail every day.

[1] = Method: To determine the growth inhibition effect and toxicity of the cytidine derivative samples of the present invention on the transplanted tumor of nude mice bearing colon cancer HCT-116.
as §1
Varieties and lines; Balb/c Nude mice; level: SPF; sex: female.
4.2 Animal inoculation and grouping: Each nude mouse was inoculated subcutaneously with 0.1 mL of cell suspension (3×10^6 cell/mouse) at right side of hind limb in a sterile stale. When the tumor grew to about 60-150 mm^3, the nude mice with similar tumor volume and desirable shape were selected (it would be better to select single spherical shape, no irregular shape or multiple tumors grouped together) for grouping, 6 mice a group. The grouping is as follows:
The control group, namely the model control group, was injected with a mixture of ethanol, Cremophor EL, and saline (5:5:90).
Those mice were weighed three times a week.
All clinical symptoms of each animal should be recorded at the beginning of the test and during the test. The observations should be made at the same time each day.
An animal would be killed by CO2 when its weight loss was more than 20%, when it was about to die, or when its tumor volume exceeded 2800 mm^3. The tumor was separated and weighed, and the animal was autopsied and observed to evaluate and record whether there were pathological changes in the organs.
The data were expressed as Mean±SEM unless specially provided; Non-pairing T test was performed for the data between the two groups. P<0.05 was considered as significant difference.

[2] = system: HCT-116 colon cancer xenografts; assay: Tumor growth inhibition of HCT-116 colon cancer xenografts in tumor-bearing nude mice (tumor volume, TGI %, RTV, T/C %); assay type: in vivo, Balb/c Nude mice
Method: 4.1 Tumor cells: colon cancer HCT-116 cells, purchased from the Institute of Cell Biology, Chinese Academy of Sciences. The cells were incubated by F-12 medium (containing 10% FBS) in carbon dioxide incubator at 37° C. and in saturated humidity, with 5% CO2 and 95% air in volume fraction. Before inoculation, the cells at logarithmic phase were taken, and digested with 0.25% trypsin, washed once with PBS and resuspended in PBS for counting. The cells were resuspended in serum-free medium and adjusted to about 3×10^7 cell/mL.
The grouping is as follows:
The formations of tumor at the inoculation site of each group of nude mice were observed. The diameter of tumor nodule (D) was measured three times a week with round hole ruler, and the volume of tumor nodule (V) was calculated according to the following formula: […].
Anti-tumor activity was evaluated by tumor growth inhibition rate TGI (%) and relative tumor proliferation rate T/C (%).
The relative tumor volume (RTV) was calculated as: RTV=Vt/V0, where V0 was the tumor volume when they were grouped and administered, and Vt was the tumor volume at the time of measurement.
The relative proliferation rate T/C (%) was calculated as: […].
TRTV: RTV of the treatment group; CRTV: RTV of the control group.
P<0.05 was considered as significant difference.

[3] = Day 0, G3-G9 groups, single IP dose, Mean±SEM
[4] = Day 4, G3-G9 groups, single IP dose, Mean±SEM
[5] = Day 6, G3-G9 groups, single IP dose, Mean±SEM
[6] = Day 8, G3-G9 groups, single IP dose, Mean±SEM
[7] = Day 11, G3-G9 groups, single IP dose, Mean±SEM
[8] = Day 13, G3-G9 groups, single IP dose, Mean±SEM
[9] = Day 15, G3-G9 groups, single IP dose, Mean±SEM
[10] = Day 18, G3-G9 groups, single IP dose, Mean±SEM
[11] = Day 20, G3-G9 groups, single IP dose, Mean±SEM
[12] = Day 22, G3-G9 groups, single IP dose, Mean±SEM

## O=C(Nc1ccn([C@@H]2O[C@H](CO)[C@@H](O)C2(F)F)c(=O)n1)OCc1ccc([N+](=O)[O-])cc1 [Compound G5, 4-N-(4-nitrocarboxybenzyl)-2′-deoxy-2′,2′-difluorocytidine]
ICR mice
  dose that could be tolerated (maximum tolerated dose, MTD): 300 mg/kg
[1]; [3]
  Weight change rate, Day 0: 0.00 ± 0.00%
  Weight of mice, Day 0: 21.03 ± 0.47 g
[1]; Day 4 (G7: Day 4 and Day 6), p<0.05
  weights of animals on Day 4 after administration: significantly reduced
[1]; [4]
  Weight change rate, Day 4: −8.40 ± 2.65 %
  Weight of mice, Day 4: 19.30 ± 0.85 g
[1]; Day 4, G4 350 mg/kg, G5 325 mg/kg, G7 250 mg/kg, single IP
  weight loss rate on Day 4 after administration: less than 10%
[1]; [5]
  Weight change rate, Day 6: −1.16 ± 2.31%
  Weight of mice, Day 6: 20.82 ± 0.81 g
[1]; [6]
  Weight change rate, Day 8: 2.81 ± 1.37%
  Weight of mice, Day 8: 21.63 ± 0.62 g
[1]; [7]
  Weight change rate, Day 11: 4.96 ± 1.42%
  Weight of mice, Day 11: 22.07 ± 0.49 g
[1]; [8]
  Weight change rate, Day 13: 7.84 ± 1.39 %
  Weight of mice, Day 13: 22.67 ± 0.45 g
[1]; [9]
  Weight change rate, Day 15: 6.31 ± 1.39 %
  Weight of mice, Day 15: 22.35 ± 0.49 g
[1]; [10]
  Weight change rate, Day 18: 8.28 ± 1.61 %
  Weight of mice, Day 18: 22.75 ± 0.38 g
[1]; [11]
  Weight change rate, Day 20: 9.18 ± 1.65 %
  Weight of mice, Day 20: 22.95 ± 0.50 g
[1]; [12]
  Weight change rate, Day 22: 10.41 ± 2.03%
  Weight of mice, Day 22: 23.20 ± 0.47 g
[1]; Day 22, single IP dose (mg/kg)
  Day 22 Mortality: 0%
[1]; G4 Day 18 to Day 20 (p<0.05), G5 Day 13 to Day 20 (p<0.05~0.01)
  body weight compared with model control group: significantly increased
[1]; after single IP dose, compared with model control group
  clinical symptoms: no significant differences in clinical symptoms
[2]; [3]
  Day 0 (RTV): 1.00 ± 0.00
  Tumor volume, Day 0: 65.68 ± 20.50** mm^3
[2]; Day 4, G3-G9 groups, single IP dose
  Day 4 (TGI %): 77.08%
[2]; [4]
  Day 4 (RTV): 0.89 ± 0.17
  Tumor volume, Day 4: 61.06 ± 22.28** mm^3
[2]; Day 6, G3-G9 groups, single IP dose
  Day 6 (TGI %): 90.77%
[2]; [5]
  Day 6 (RTV): 0.62 ± 0.08
  Tumor volume, Day 6: 39.01 ± 12.19** mm^3
[2]; Day 8, G3-G9 groups, single IP dose
  Day 8 (TGI %): 93.03%
[2]; [6]
  Day 8 (RTV): 0.53 ± 0.06
  Tumor volume, Day 8: 36.63 ± 13.03** mm^3
[2]; Day 8 to Day 13 after single-dose intraperitoneal administration
  tumor inhibition effect: good tumor inhibition effect
[2]; Day 11, G3-G9 groups, single IP dose
  Day 11 (TGI %): 94.46%
[2]; [7]
  Day 11 (RTV): 0.60 ± 0.08
  Tumor volume, Day 11: 44.57 ± 18.01** mm^3
[2]; Day 13, G3-G9 groups, single IP dose
  Day 13 (TGI %): 93.46%
[2]; [8]
  Day 13 (RTV): 1.04 ± 0.14
  Tumor volume, Day 13: 75.90 ± 28.06** mm^3
[2]; Day 15, G3-G9 groups, single IP dose
  Day 15 (TGI %): 90.78%
[2]; [9]
  Day 15 (RTV): 1.91 ± 0.35
  Tumor volume, Day 15: 130.29 ± 45.17** mm^3
[2]; Day 18, G3-G9 groups, single IP dose
  Day 18 (TGI %): 87.26%
[2]; [10]
  Day 18 (RTV): 3.76 ± 0.64
  Tumor volume, Day 18: 235.85 ± 70.86** mm^3
[2]; Day 20, G3-G9 groups, single IP dose
  Day 20 (TGI %): 80.09%
[2]; [11]
  Day 20 (RTV): 8.51 ± 3.10
  Tumor volume, Day 20: 421.94 ± 104.20** mm^3
[2]; Day 22, G3-G9 groups, single IP dose
  Day 22 (TGI %): 74.55%
[2]; [12]
  Day 22 (RTV): 13.37 ± 4.65
  Tumor volume, Day 22: 665.68 ± 158.57** mm^3
[2]; Day 22, G4 350 mg/kg, G5 325 mg/kg, G7 250 mg/kg, single IP
  T/C % on Day 22: 68.77%
[2]; G4 and G5 Day 4 to Day 18, G7 Day 4 to Day 15 (p<0.05-0.01), G9 only Day 4 (p<0.05)
  relative tumor volume compared with the model control group: reduced significantly
[2]; day of maximum: G3 Day 8, G4 Day 11, G5 Day 11, G9 Day 4, G7 Day 8, single IP
  maximum value of TGI %: 94.46%
[2]; day of minimum: G4 Day 13, G5 Day 11, G7 Day 8, single IP
  minimum value of T/C %: 10.01%
